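Assay format: 96-well plates, 48-hour exposure. GI50 is the concentration that inhibits growth by half.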 The source made the active and inactive calls. Rule as the data show it: active = GI50 up to about 1.1 µM and inactive = higher. Where a SMILES comes first, the peptide text is derived from it. The star is where a group is joined. Boc = CC(C)(C)OC(=O)*
Key:
Test in all cases: inhibition of tumour cell growth, NCI panel, 48 h
HCC 2998 = tested on: HCC 2998
SF-268 = tested on: SF-268
MCF7 = tested on: MCF7
HT-29 = tested on: HT-29
IGROV-1 = tested on: IGROV-1
COLO 205 = tested on: COLO 205
EKVX = tested on: EKVX
M14 = tested on: M14
SW-620 = tested on: SW-620
OVCAR-3 = tested on: OVCAR-3
OVCAR-4 = tested on: OVCAR-4
786-0 = tested on: 786-0
UACC-257 = tested on: UACC-257
PC-3 = tested on: PC-3
MDA-MB-435 = tested on: MDA-MB-435
LOX IMVI = tested on: LOX IMVI
T47D = tested on: T47D
RXF 393 = tested on: RXF 393
HOP-92 = tested on: HOP-92

Measured: GI50

O=C1c2ccccc2C(=O)N1CCc1nc(-c2ccccc2)c[nH]1
inactive: HCC 2998 > 100 µM | SF-268 > 100 µM | MCF7 > 100 µM | HT-29 > 100 µM | IGROV-1 > 100 µM | COLO 205 > 100 µM | EKVX > 100 µM | M14 > 100 µM | SW-620 > 100 µM | OVCAR-3 > 100 µM | OVCAR-4 > 100 µM | 786-0 > 100 µM | UACC-257 > 100 µM | PC-3 > 100 µM

CC(=O)N(C)CCc1c[nH]c2ccccc12
inactive: SF-268 > 100 µM | MDA-MB-435 > 100 µM | MCF7 > 100 µM | HT-29 > 100 µM | IGROV-1 > 100 µM | COLO 205 > 100 µM | EKVX > 100 µM | M14 > 100 µM | LOX IMVI > 100 µM | SW-620 > 100 µM | OVCAR-3 > 100 µM | T47D > 100 µM | OVCAR-4 > 100 µM | 786-0 > 100 µM | UACC-257 > 100 µM | PC-3 > 100 µM

O=C(/N=c1/[nH]/c(=N/C(=O)c2ccccc2)ss1)c1ccccc1
inactive: HCC 2998 18 µM | RXF 393 29.7 µM | SF-268 25.8 µM | HT-29 16.6 µM | IGROV-1 6.64 µM | COLO 205 22.9 µM | EKVX 25.4 µM | M14 27.9 µM | LOX IMVI 23.9 µM | SW-620 25.5 µM | OVCAR-3 13.1 µM | OVCAR-4 38.1 µM | 786-0 25.5 µM | UACC-257 14.6 µM

COc1cc(OC)c2c(c1OC)OCC(Cc1ccc(O)cc1)C2=O (stereo not given)
inactive: RXF 393 20.3 µM | SF-268 > 25 µM | MDA-MB-435 > 25 µM | HT-29 > 25 µM | IGROV-1 > 25 µM | COLO 205 > 25 µM | M14 > 25 µM | LOX IMVI > 25 µM | SW-620 > 25 µM | OVCAR-3 21 µM | T47D 8.3 µM | OVCAR-4 > 25 µM | 786-0 > 25 µM | UACC-257 > 25 µM | PC-3 > 25 µM

COc1ccc(Nc2nc3cc(C(F)(F)F)ccc3nc2C(=O)O)cc1
inactive: HCC 2998 14.1 µM | RXF 393 11.9 µM | SF-268 17.6 µM | MDA-MB-435 22.5 µM | MCF7 20.9 µM | HT-29 30.3 µM | IGROV-1 24 µM | COLO 205 21.3 µM | EKVX 22.9 µM | LOX IMVI 16.1 µM | SW-620 21.6 µM | OVCAR-3 12.6 µM | OVCAR-4 27.3 µM | 786-0 17.5 µM | UACC-257 19.1 µM | PC-3 20.4 µM

Cc1ccc(-c2nc(Cc3n[nH]c(-c4ccc(C)cc4)n3)n[nH]2)cc1
inactive: HCC 2998 > 100 µM | RXF 393 21.1 µM | SF-268 6.14 µM | MDA-MB-435 > 100 µM | MCF7 > 100 µM | HT-29 > 100 µM | IGROV-1 > 100 µM | COLO 205 > 100 µM | EKVX > 100 µM | M14 > 100 µM | LOX IMVI > 100 µM | SW-620 > 100 µM | OVCAR-3 > 100 µM | HOP-92 > 100 µM | OVCAR-4 3.75 µM | 786-0 > 100 µM | UACC-257 > 100 µM | PC-3 > 100 µM

COc1ccc(/C=C2\OC(=O)C(Cl)=C2c2ccc(OC)cc2)cc1
inactive: SF-268 40.4 µM | MDA-MB-435 > 100 µM | HT-29 > 100 µM | IGROV-1 > 100 µM | COLO 205 > 100 µM | EKVX > 100 µM | M14 > 100 µM | LOX IMVI > 100 µM | SW-620 > 100 µM | OVCAR-3 > 100 µM | T47D > 100 µM | HOP-92 14 µM | OVCAR-4 86.9 µM | 786-0 45.6 µM | UACC-257 > 100 µM | PC-3 63 µM

COc1c(-c2nc3ccc(N4CCN(C)CC4)cc3[nH]2)cc(OC)c2[nH]c(CO)nc12
inactive: RXF 393 > 100 µM | SF-268 > 100 µM | MDA-MB-435 69.5 µM | MCF7 54.3 µM | HT-29 79.8 µM | IGROV-1 > 100 µM | COLO 205 82.4 µM | EKVX > 100 µM | M14 > 100 µM | LOX IMVI 88.5 µM | SW-620 74.8 µM | OVCAR-3 > 100 µM | T47D > 100 µM | HOP-92 > 100 µM | OVCAR-4 72.6 µM | 786-0 90.8 µM | UACC-257 > 100 µM | PC-3 > 100 µM

O=C(O)CSc1n[nH]c(=O)[nH]c1=O
inactive: RXF 393 > 100 µM | SF-268 > 100 µM | MDA-MB-435 > 100 µM | MCF7 > 100 µM | HT-29 > 100 µM | IGROV-1 > 100 µM | COLO 205 > 100 µM | EKVX > 100 µM | M14 > 100 µM | LOX IMVI > 100 µM | SW-620 > 100 µM | OVCAR-3 74.8 µM | T47D > 100 µM | OVCAR-4 > 100 µM | 786-0 > 100 µM | PC-3 > 100 µM

O=C1CCc2cc3c(cc21)C(C(=O)O)CC3 (stereo not given)
inactive: HCC 2998 > 100 µM | RXF 393 30.8 µM | SF-268 > 100 µM | MCF7 > 100 µM | HT-29 > 100 µM | IGROV-1 > 100 µM | COLO 205 > 100 µM | EKVX > 100 µM | M14 > 100 µM | LOX IMVI > 100 µM | SW-620 > 100 µM | T47D > 100 µM | OVCAR-4 > 100 µM | 786-0 > 100 µM | UACC-257 > 100 µM | PC-3 > 100 µM

COc1cc(C(c2cccc3ccccc23)N2C(=O)CCC2C(=O)NCc2ccccc2)cc(OC)c1OC (stereo not given)
inactive: HCC 2998 > 100 µM | RXF 393 > 100 µM | SF-268 > 100 µM | MDA-MB-435 > 100 µM | MCF7 > 100 µM | HT-29 > 100 µM | IGROV-1 > 100 µM | COLO 205 > 100 µM | EKVX > 100 µM | M14 > 100 µM | LOX IMVI > 100 µM | SW-620 > 100 µM | OVCAR-3 > 100 µM | T47D > 100 µM | HOP-92 > 100 µM | OVCAR-4 > 100 µM | 786-0 > 100 µM | UACC-257 > 100 µM

COC(=O)C(Cc1c[nH]c2ccccc12)NC(=O)C(Cc1c[nH]c2ccccc12)NC(=O)C(Cc1c[nH]c2ccccc12)NC(=O)C(Cc1c[nH]c2ccccc12)NC(=O)C(Cc1c[nH]c2ccccc12)NC(=O)C(Cc1c[nH]c2ccccc12)NC(=O)C(Cc1c[nH]c2ccccc12)NC(=O)C(Cc1c[nH]c2ccccc12)NC(=O)OC(C)(C)C (stereo not given) (Boc-WWWWWWWW-OMe; configuration not given here)
inactive: HCC 2998 > 100 µM | SF-268 > 100 µM | MDA-MB-435 > 100 µM | MCF7 > 100 µM | HT-29 > 100 µM | IGROV-1 19.8 µM | M14 12.6 µM | LOX IMVI 63.5 µM | SW-620 > 100 µM | OVCAR-3 83.6 µM | OVCAR-4 > 100 µM | 786-0 > 100 µM | UACC-257 43.5 µM | PC-3 65.5 µM

COc1cc(/C=C(\C#N)C(=O)c2ccccc2)ccc1OCc1ccccc1
inactive: HCC 2998 > 100 µM | IGROV-1 > 100 µM | COLO 205 > 100 µM | EKVX > 100 µM | M14 > 100 µM | LOX IMVI > 100 µM | SW-620 > 100 µM | OVCAR-3 > 100 µM | OVCAR-4 > 100 µM | 786-0 > 100 µM | UACC-257 > 100 µM

O=S(=O)(NC(c1ccccc1)(c1cc2ccccc2[nH]1)c1cc2ccccc2n1S(=O)(=O)c1ccccc1)c1ccccc1 (stereo not given)
inactive: HCC 2998 > 100 µM | SF-268 > 100 µM | MDA-MB-435 > 100 µM | HT-29 > 100 µM | IGROV-1 > 100 µM | COLO 205 > 100 µM | EKVX > 100 µM | M14 62.2 µM | LOX IMVI > 100 µM | SW-620 > 100 µM | OVCAR-3 91.8 µM | T47D > 100 µM | HOP-92 > 100 µM | OVCAR-4 > 100 µM | 786-0 > 100 µM | UACC-257 > 100 µM | PC-3 > 100 µM

O=c1c(C(c2ccc(O)cc2)c2c(O)oc3ccccc3c2=O)c(O)oc2ccccc12
inactive: HCC 2998 46.3 µM | SF-268 16.2 µM | MDA-MB-435 98.9 µM | HT-29 97.1 µM | IGROV-1 66.2 µM | COLO 205 69.8 µM | EKVX > 100 µM | LOX IMVI 45.2 µM | SW-620 44.5 µM | OVCAR-3 76.9 µM | T47D > 100 µM | HOP-92 78.5 µM | OVCAR-4 > 100 µM | 786-0 58.2 µM | UACC-257 > 100 µM | PC-3 > 100 µM

NS(=O)(=O)c1ccc(NC(=O)c2cc([N+](=O)[O-])cc([N+](=O)[O-])c2)cc1
inactive: RXF 393 > 100 µM | SF-268 32.4 µM | MDA-MB-435 17.7 µM | MCF7 19.5 µM | HT-29 43.1 µM | IGROV-1 23.6 µM | COLO 205 19.7 µM | M14 47.8 µM | LOX IMVI 22.8 µM | SW-620 66.4 µM | OVCAR-3 25.8 µM | T47D 18.8 µM | HOP-92 21.7 µM | OVCAR-4 27.7 µM | 786-0 76.2 µM | UACC-257 12.8 µM | PC-3 21.1 µM

CC(=O)C1C(c2ccc(N(C)C)cc2)c2cc3c(cc2OC1(C)O)OCO3 (stereo not given)
inactive: RXF 393 33.3 µM | HT-29 23.2 µM | IGROV-1 77.8 µM | COLO 205 41.1 µM | EKVX 77.6 µM | M14 43.8 µM | LOX IMVI 42.1 µM | SW-620 40.2 µM | OVCAR-3 35 µM | HOP-92 8.32 µM | OVCAR-4 33.7 µM | 786-0 36.7 µM | UACC-257 51.8 µM

Source: ChEMBL document CHEMBL1201862, “PubChem BioAssay data set” (2004)
